According to ChEMBL document CHEMBL1671660, “Efficacy of iclaprim against wild-type and thymidine kinase-deficient methicillin-resistant Staphylococcus aureus isolates in an in vitro fibrin clot model” (Antimicrob Agents Chemother, 2009):
Converted amounts (≈) assume the structure as drawn. The source made the active and inactive calls. The calls are words filed in the database; no cut-off is given here.

Experiments:
Staphylococcus aureus [1] = assay: Bactericidal activity against methicillin-resistant Staphylococcus aureus AW6 infected in in vitro rat fibrin clot model assessed as reduction in bacterial colony at 40 ug/ml after 48 hrs; type: functional, organism-based
Staphylococcus aureus [2] = assay: Bactericidal activity against thymidine kinase-deficient methicillin-resistant Staphylococcus aureus AH1252 infected in in vitro rat fibrin clot model assessed as reduction in bacterial colony at 40 ug/ml after 24 hrs; type: functional, organism-based
Staphylococcus aureus [3] = assay: Bactericidal activity against thymidine kinase-deficient methicillin-resistant Staphylococcus aureus AH1252 infected in in vitro rat fibrin clot model assessed as reduction in bacterial colony at 40 ug/ml after 48 hrs; type: functional, organism-based
Staphylococcus aureus [4] = assay: Bactericidal activity against methicillin-resistant Staphylococcus aureus AW6 at 40 ug/ml by time kill analysis in presence of 50% human serum; type: functional, organism-based
Staphylococcus aureus [5] = assay: Bactericidal activity against thymidine kinase-deficient methicillin-resistant Staphylococcus aureus AH1252 at 40 ug/ml by time kill analysis in presence of 50% human serum; type: functional, organism-based
Staphylococcus aureus [6] = assay: Bactericidal activity against methicillin-resistant Staphylococcus aureus AW6 at 40 ug/ml by time kill analysis in presence of 50% rat serum; type: functional, organism-based
Staphylococcus aureus [7] = assay: Bacteriostatic activity against methicillin-resistant Staphylococcus aureus AW6 infected in in vitro human fibrin clot model assessed as reduction in bacterial colony at 40 ug/ml after 24 hrs; type: functional, organism-based
Staphylococcus aureus [8] = assay: Bactericidal activity against thymidine kinase-deficient methicillin-resistant Staphylococcus aureus AH1252 at 40 ug/ml by time kill analysis in presence of 50% rat serum; type: functional, organism-based
Staphylococcus aureus [9] = assay: Antimicrobial activity against methicillin-resistant Staphylococcus aureus AW6 grown on CAMHB media after 24 hrs by broth microdilution method in presence of 50% human serum and 0.2 U/ml thymidine phosphorylase; type: functional; settings: AW6, 24 h
Staphylococcus aureus [10] = assay: Bactericidal activity against thymidine kinase-deficient methicillin-resistant Staphylococcus aureus AH1252 infected in in vitro human fibrin clot model assessed as log reduction in bacterial colony at 3.5 ug/ml after 24 hrs; type: functional
Staphylococcus aureus [11] = assay: Bactericidal activity against methicillin-resistant Staphylococcus aureus AW6 at 3.5 ug/ml by time kill analysis in presence of 50% rat serum and 1 ug/ml thymidine; type: functional, organism-based
[12] = Plasma protein binding in human; type: ADME, cell-free; settings: read-out: PPB (converted)
Staphylococcus aureus [13] = assay: Antimicrobial activity against methicillin-resistant Staphylococcus aureus AW6 grown on CAMHB media after 24 hrs by broth microdilution method in presence of 50% human serum; type: functional; settings: AW6, 24 h
Staphylococcus aureus [14] = assay: Antimicrobial activity against thymidine kinase-deficient methicillin-resistant Staphylococcus aureus AH1252 grown on CAMHB media after 24 hrs by broth microdilution method in presence of 50% rat serum and 0.2 U/ml thymidine phosphorylase; type: functional; settings: AH1252, 24 h
Staphylococcus aureus [15] = assay: Antimicrobial activity against methicillin-resistant Staphylococcus aureus AW6 grown on CAMHB media after 24 hrs by broth microdilution method in presence of protein depleted human serum; type: functional; settings: AW6, 24 h
Staphylococcus aureus [16] = assay: Antimicrobial activity against methicillin-resistant Staphylococcus aureus AW6 grown on CAMHB media after 24 hrs by broth microdilution method in presence of 50% human serum and 1 ug/ml thymidine; type: functional; settings: AW6, 24 h
Staphylococcus aureus [17] = assay: Bactericidal activity against methicillin-resistant Staphylococcus aureus AW6 at 3.5 ug/ml by time kill analysis in presence of 50% human serum and 1 ug/ml thymidine; type: functional, organism-based
Staphylococcus aureus [18] = assay: Antimicrobial activity against thymidine kinase-deficient methicillin-resistant Staphylococcus aureus AH1252 grown on CAMHB media after 24 hrs by broth microdilution method in presence of 50% human serum and 1 ug/ml thymidine; type: functional; settings: AH1252, 24 h
Staphylococcus aureus [19] = assay: Bactericidal activity against thymidine kinase-deficient methicillin-resistant Staphylococcus aureus AH1252 assessed as loss of bacterial cell viability at 3.5 ug/ml measured within 8 hrs by time kill analysis in presence of 50% human serum; type: functional
Staphylococcus aureus [20] = assay: Antimicrobial activity against methicillin-resistant Staphylococcus aureus AW6 grown on CAMHB media after 24 hrs by broth microdilution method in presence of 50% rat serum and 0.2 U/ml thymidine phosphorylase; type: functional; settings: AW6, 24 h
Staphylococcus aureus [21] = assay: […] activity against methicillin-resistant Staphylococcus aureus AW6 assessed as loss of bacterial cell viability at 3.5 ug/ml measured within 8 hrs by time kill analysis in presence of 50% human serum; type: functional
Staphylococcus aureus [22] = assay: Bactericidal activity against methicillin-resistant Staphylococcus aureus AW6 infected in in vitro human fibrin clot model assessed as log reduction in bacterial colony at 3.5 ug/ml after 24 hrs; type: functional
Staphylococcus aureus [23] = assay: Antimicrobial activity against thymidine kinase-deficient methicillin-resistant Staphylococcus aureus AH1252 grown on CAMHB media after 24 hrs by broth microdilution method in presence of 50% rat serum; type: functional; settings: AH1252, 24 h
[24] = Protein binding in human serum; type: ADME, cell-free; settings: read-out: PB (converted)
Staphylococcus aureus [25] = assay: Bacteriostatic activity against methicillin-resistant Staphylococcus aureus AW6 infected in in vitro rat fibrin clot model assessed as reduction in bacterial colony at 3.5 ug/ml after 48 hrs; type: functional, organism-based
Staphylococcus aureus [26] = assay: Antimicrobial activity against thymidine kinase-deficient methicillin-resistant Staphylococcus aureus AH1252 grown on CAMHB media after 24 hrs by broth microdilution method in presence of protein depleted human serum; type: functional; settings: AH1252, 24 h
Staphylococcus aureus [27] = assay: Bactericidal activity against thymidine kinase-deficient methicillin-resistant Staphylococcus aureus AH1252 assessed as loss of bacterial cell viability at 3.5 ug/ml by time kill analysis in presence of 50% rat serum; type: functional, organism-based
Staphylococcus aureus [28] = assay: Antimicrobial activity against methicillin-resistant Staphylococcus aureus AW6 grown on CAMHB media after 24 hrs by broth microdilution method in presence of protein depleted rat serum; type: functional; settings: AW6, 24 h
Staphylococcus aureus [29] = assay: Antimicrobial activity against thymidine kinase-deficient methicillin-resistant Staphylococcus aureus AH1252 grown on CAMHB media after 24 hrs by broth microdilution method in presence of 0.2 U/ml thymidine phosphorylase; type: functional; settings: AH1252, 24 h
Staphylococcus aureus [30] = assay: Antimicrobial activity against thymidine kinase-deficient methicillin-resistant Staphylococcus aureus AH1252 grown on CAMHB media after 24 hrs by broth microdilution method in presence of 50% human serum; type: functional; settings: AH1252, 24 h
[31] = Protein binding in rat serum; type: ADME, cell-free; settings: read-out: PB (converted)
Staphylococcus aureus [32] = assay: Bactericidal activity against methicillin-resistant Staphylococcus aureus AW6 at 3.5 ug/ml by time kill analysis in presence of 50% rat serum and 0.2 U/ml thymidine phosphorylase; type: functional, organism-based
Staphylococcus aureus [33] = assay: Antimicrobial activity against methicillin-resistant Staphylococcus aureus AW6 grown on CAMHB media after 24 hrs by broth microdilution method in presence of 50% rat serum; type: functional; settings: AW6, 24 h
Staphylococcus aureus [34] = assay: Bactericidal activity against thymidine kinase-deficient methicillin-resistant Staphylococcus aureus AH1252 infected in in vitro rat fibrin clot model assessed as reduction in bacterial colony at 3.5 ug/ml after 48 hrs; type: functional, organism-based
Staphylococcus aureus [35] = assay: Antimicrobial activity against thymidine kinase-deficient methicillin-resistant Staphylococcus aureus AH1252 grown on CAMHB media after 24 hrs by broth microdilution method in presence of protein depleted rat serum; type: functional; settings: AH1252, 24 h
Staphylococcus aureus [36] = assay: Antimicrobial activity against methicillin-resistant Staphylococcus aureus AW6 grown on CAMHB media after 24 hrs by broth microdilution method in presence of 0.2 U/ml thymidine phosphorylase; type: functional; settings: AW6, 24 h
Staphylococcus aureus [37] = assay: Antimicrobial activity against thymidine kinase-deficient methicillin-resistant Staphylococcus aureus AH1252 grown on CAMHB media after 24 hrs by broth microdilution method; type: functional; settings: AH1252, 24 h
Staphylococcus aureus [38] = assay: Antimicrobial activity against methicillin-resistant Staphylococcus aureus AW6 grown on CAMHB media after 24 hrs by broth microdilution method; type: functional; settings: AW6, 24 h
Staphylococcus aureus [39] = assay: […] activity against methicillin-resistant Staphylococcus aureus AW6 assessed as loss of bacterial cell viability at 3.5 ug/ml by time kill analysis in presence of 50% rat serum; type: functional
Staphylococcus aureus [40] = assay: Antimicrobial activity against thymidine kinase-deficient methicillin-resistant Staphylococcus aureus AH1252 grown on CAMHB media after 24 hrs by broth microdilution method in presence of 50% human serum and 0.2 U/ml thymidine phosphorylase; type: functional; settings: AH1252, 24 h

Q: Which Activity (Staphylococcus aureus [1]) does the source give for CN[C@H](CC(C)C)C(=O)N[C@H]1C(=O)N[C@@H](CC(N)=O)C(=O)N[C@H]2C(=O)N[C@H]3C(=O)N[C@H](C(=O)N[C@H](C(=O)O)c4cc(O)cc(O)c4-c4cc3ccc4O)[C@H](O)c3ccc(c(Cl)c3)Oc3cc2cc(c3O[C@@H]2O[C@H](CO)[C@@H](O)[C@H](O)[C@H]2O[C@H]2C[C@](C)(N)[C@H](O)[C@H](C)O2)Oc2ccc(cc2Cl)[C@H]1O here?
A: Active

Q: And the Activity (Staphylococcus aureus [2])?
A: Active

Q: And the Activity (Staphylococcus aureus [3])?
A: Active

Q: And the Activity (Staphylococcus aureus [4])?
A: Active

Q: And the Activity (Staphylococcus aureus [5])?
A: Active

Q: What about the Activity (Staphylococcus aureus [6]) of the same compound?
A: Active

Q: What about the Activity (Staphylococcus aureus [7]) of the same compound?
A: Active

Q: What about the Activity (Staphylococcus aureus [8]) of the same compound?
A: Active

Q: For COc1cc(Cc2cnc(N)nc2N)c2c(c1OC)OC(C1CC1)C=C2 (stereo not given) [ICLAPRIM], which MIC (Staphylococcus aureus [9]) is on record?
A: 0.2 µg/mL

Q: And the log10CFU/ml (Staphylococcus aureus [10])?
A: >=3

Q: What about the Activity (Staphylococcus aureus [11]) of the same compound?
A: inactive

Q: And the fraction unbound [12]?
A: 0.07

Q: What about the MIC (Staphylococcus aureus [13]) of the same compound?
A: 0.12 µg/mL

Q: And the MIC (Staphylococcus aureus [14])?
A: 0.03 µg/mL

Q: What about the MIC (Staphylococcus aureus [15]) of the same compound?
A: 0.03 µg/mL

Q: What about the MIC (Staphylococcus aureus [16]) of the same compound?
A: > 2 µg/mL

Q: What about the Activity (Staphylococcus aureus [17]) of the same compound?
A: inactive

Q: And the MIC (Staphylococcus aureus [18])?
A: 0.03 µg/mL

Q: And the log10CFU/ml (Staphylococcus aureus [19])?
A: >=3

Q: And the MIC (Staphylococcus aureus [20])?
A: 0.06 µg/mL

Q: And the log10CFU/ml (Staphylococcus aureus [21])?
A: >=3

Q: What about the log10CFU/ml (Staphylococcus aureus [22]) of the same compound?
A: >=3

Q: And the MIC (Staphylococcus aureus [23])?
A: 0.03 µg/mL

Q: And the fraction unbound [24]?
A: 0.05

Q: What about the Activity (Staphylococcus aureus [25]) of the same compound?
A: Active

Q: What about the MIC (Staphylococcus aureus [26]) of the same compound?
A: 0.03 µg/mL

Q: What about the Activity (Staphylococcus aureus [27]) of the same compound?
A: Active

Q: What about the MIC (Staphylococcus aureus [28]) of the same compound?
A: > 2 µg/mL

Q: What about the MIC (Staphylococcus aureus [29]) of the same compound?
A: 0.03 µg/mL

Q: What about the MIC (Staphylococcus aureus [30]) of the same compound?
A: 0.06 µg/mL

Q: What about the fraction unbound [31] of the same compound?
A: 0.1

Q: And the Activity (Staphylococcus aureus [32])?
A: Active

Q: And the MIC (Staphylococcus aureus [33])?
A: > 2 µg/mL

Q: What about the Activity (Staphylococcus aureus [34]) of the same compound?
A: Active

Q: What about the MIC (Staphylococcus aureus [35]) of the same compound?
A: 0.06 µg/mL

Q: And the MIC (Staphylococcus aureus [36])?
A: 0.03 µg/mL

Q: And the MIC (Staphylococcus aureus [37])?
A: 0.03 µg/mL (≈ 0.0846 µM)

Q: And the MIC (Staphylococcus aureus [38])?
A: 0.06 µg/mL (≈ 0.169 µM)

Q: What about the log10CFU/ml (Staphylococcus aureus [39]) of the same compound?
A: >=3

Q: And the MIC (Staphylococcus aureus [40])?
A: 0.06 µg/mL
